Reference: PubChem BioAssay AID1259407 (Chemical Carcinogenesis Research Information System (CCRIS), 2018)
Active and inactive are the calls of the source. How the calls were made is not given here.

Tested on: CCRIS mutagenicity, Ames/micronucleus/aberration tests
Test: CCRIS mutagenicity studies
Settings: Test System: AMES SALMONELLA TYPHIMURIUM
[1] = Strain/Indicator: TA97, Metabolic Activation: HAMSTER, LIVER, S-9, AROCLOR 1254 (10%), Method: PREINCUBATION
[2] = Strain/Indicator: TA97, Metabolic Activation: HAMSTER, LIVER, S-9, AROCLOR 1254 (30%), Method: PREINCUBATION
[3] = Strain/Indicator: TA97, Metabolic Activation: NONE, Method: PREINCUBATION
[4] = Strain/Indicator: TA97, Metabolic Activation: RAT, LIVER, S-9, AROCLOR 1254 (10%), Method: PREINCUBATION
[5] = Strain/Indicator: TA97, Metabolic Activation: RAT, LIVER, S-9, AROCLOR 1254 (30%), Method: PREINCUBATION
[6] = Strain/Indicator: TA98, Metabolic Activation: HAMSTER, LIVER, S-9, AROCLOR 1254 (10%), Method: PREINCUBATION
[7] = Strain/Indicator: TA98, Metabolic Activation: HAMSTER, LIVER, S-9, AROCLOR 1254 (30%), Method: PREINCUBATION
[8] = Strain/Indicator: TA98, Metabolic Activation: NONE, Method: PREINCUBATION
[9] = Strain/Indicator: TA98, Metabolic Activation: RAT, LIVER, S-9, AROCLOR 1254 (10%), Method: PREINCUBATION
[10] = Strain/Indicator: TA98, Metabolic Activation: RAT, LIVER, S-9, AROCLOR 1254 (30%), Method: PREINCUBATION
[11] = Strain/Indicator: TA100, Metabolic Activation: HAMSTER, LIVER, S-9, AROCLOR 1254 (10%), Method: PREINCUBATION
[12] = Strain/Indicator: TA100, Metabolic Activation: HAMSTER, LIVER, S-9, AROCLOR 1254 (30%), Method: PREINCUBATION
[13] = Strain/Indicator: TA100, Metabolic Activation: NONE, Method: PREINCUBATION
[14] = Strain/Indicator: TA100, Metabolic Activation: RAT, LIVER, S-9, AROCLOR 1254 (10%), Method: PREINCUBATION
[15] = Strain/Indicator: TA100, Metabolic Activation: RAT, LIVER, S-9, AROCLOR 1254 (30%), Method: PREINCUBATION
[16] = Strain/Indicator: TA1535, Metabolic Activation: HAMSTER, LIVER, S-9, AROCLOR 1254 (10%), Method: PREINCUBATION
[17] = Strain/Indicator: TA1535, Metabolic Activation: HAMSTER, LIVER, S-9, AROCLOR 1254 (30%), Method: PREINCUBATION
[18] = Strain/Indicator: TA1535, Metabolic Activation: NONE, Method: PREINCUBATION
[19] = Strain/Indicator: TA1535, Metabolic Activation: RAT, LIVER, S-9, AROCLOR 1254 (10%), Method: PREINCUBATION
[20] = Strain/Indicator: TA1535, Metabolic Activation: RAT, LIVER, S-9, AROCLOR 1254 (30%), Method: PREINCUBATION
[21] = Strain/Indicator: TA1537, Metabolic Activation: HAMSTER, LIVER, S-9, AROCLOR 1254 (30%), Method: PREINCUBATION
[22] = Strain/Indicator: TA1537, Metabolic Activation: NONE, Method: PREINCUBATION
[23] = Strain/Indicator: TA1537, Metabolic Activation: RAT, LIVER, S-9, AROCLOR 1254 (30%), Method: PREINCUBATION
[24] = Strain/Indicator: TA98, Metabolic Activation: NONE, Method: STANDARD PLATE
[25] = Strain/Indicator: TA100, Metabolic Activation: NONE, Method: STANDARD PLATE

Row | SMILES | mutagenic call [1] | mutagenic call [2] | mutagenic call [3] | mutagenic call [4] | mutagenic call [5] | mutagenic call [6] | mutagenic call [7] | mutagenic call [8] | mutagenic call [9] | mutagenic call [10] | mutagenic call [11] | mutagenic call [12] | mutagenic call [13] | mutagenic call [14] | mutagenic call [15] | mutagenic call [16] | mutagenic call [18] | mutagenic call [19] | mutagenic call [24] | mutagenic call [25] | also measured
1 | CCCCCCCCCCCCCCCCC1CO1 (stereo unspecified) | inactive; negative | inactive; negative | inactive; negative | inactive; negative | inactive; negative | inactive; negative | inactive; negative | inactive; negative | inactive; negative | inactive; negative | inactive; negative | inactive; negative | inactive; negative | inactive; negative | inactive; negative | inactive; negative | inactive; negative | inactive; negative |  |  | mutagenic call [17]: inactive; negative; mutagenic call [20]: inactive; negative; mutagenic call (Strain/Indicator: TA1537, Metabolic Activation: HAMSTER, LIVER, S-9, AROCLOR 1254 (10%), Method: PREINCUBATION): inactive; negative; mutagenic call [21]: inactive; negative; mutagenic call [22]: inactive; negative; mutagenic call (Strain/Indicator: TA1537, Metabolic Activation: RAT, LIVER, S-9, AROCLOR 1254 (10%), Method: PREINCUBATION): inactive; negative; mutagenic call [23]: inactive; negative
2 | COP(=S)(NC(C)C)Oc1ccccc1C(=O)OC(C)C (stereo unspecified) |  |  |  |  |  |  |  |  |  |  |  |  |  |  |  |  |  |  | inactive; negative | inactive; negative | mutagenic call (Strain/Indicator: TA98, Metabolic Activation: RAT, LIVER, S-9, PCB, Method: STANDARD PLATE): inactive; negative; mutagenic call (Strain/Indicator: TA100, Metabolic Activation: RAT, LIVER, S-9, PCB, Method: STANDARD PLATE): inactive; negative
3 | COC[CH2][Hg][Cl] |  | inactive; negative | inactive; negative |  | inactive; negative | inactive; negative | inactive; negative | inactive; negative | inactive; negative | inactive; negative | inactive; negative | inactive; negative | inactive; negative | inactive; negative | inactive; negative | inactive; negative | inactive; negative | inactive; negative |  |  | mutagenic call [17]: inactive; negative; mutagenic call [20]: inactive; negative; mutagenic call [21]: inactive; negative; mutagenic call [22]: inactive; negative; mutagenic call [23]: inactive; negative
4 | Cc1cncc(C)n1 |  |  |  |  |  |  |  | inactive; negative |  |  |  |  | inactive; negative |  |  |  |  |  | active; positive | inactive; negative | mutagenic call (Strain/Indicator: TA98, Metabolic Activation: RAT, LIVER, S-9, AROCLOR 1254, Method: PREINCUBATION): inactive; negative; mutagenic call (Strain/Indicator: TA98, Metabolic Activation: RAT, LIVER, S-9, AROCLOR 1254, Method: STANDARD PLATE): inactive; negative; mutagenic call (Strain/Indicator: TA100, Metabolic Activation: RAT, LIVER, S-9, AROCLOR 1254, Method: PREINCUBATION): inactive; negative; mutagenic call (Strain/Indicator: TA100, Metabolic Activation: RAT, LIVER, S-9, AROCLOR 1254, Method: STANDARD PLATE): inactive; negative; mutagenic call (Strain/Indicator: TA102, Metabolic Activation: NONE, Method: PREINCUBATION): inactive; negative; mutagenic call (Strain/Indicator: TA102, Metabolic Activation: RAT, LIVER, S-9, AROCLOR 1254, Method: PREINCUBATION): inactive; negative
5 | OC1C=CC=CC1O (stereo unspecified) |  |  |  |  |  |  |  |  |  |  |  |  | inactive; negative |  |  |  |  |  | inactive; negative | inactive; negative | mutagenic call (Strain/Indicator: TA98, Metabolic Activation: RAT, LIVER, S-9, PHENOBARBITAL, Method: STANDARD PLATE): inactive; negative; mutagenic call (Strain/Indicator: TA100, Metabolic Activation: RAT, LIVER, S-9, PHENOBARBITAL, Method: PREINCUBATION): active; positive; mutagenic call (Strain/Indicator: TA100, Metabolic Activation: RAT, LIVER, S-9, PHENOBARBITAL, Method: STANDARD PLATE): active; positive; mutagenic call (Strain/Indicator: TM677/8-AZAGUANINE, Metabolic Activation: NONE, Method: PREINCUBATION): inactive; negative; mutagenic call (Strain/Indicator: TM677/8-AZAGUANINE, Metabolic Activation: NONE, Method: STANDARD PLATE): active; positive; mutagenic call (Strain/Indicator: TM677/8-AZAGUANINE, Metabolic Activation: RAT, LIVER, S-9, PHENOBARBITAL, Method: PREINCUBATION): active; positive
6 | O=[N+]([O-])c1ccc(Nc2ccc(O)cc2)c([N+](=O)[O-])c1 | active; positive |  | inactive; negative | inactive; negative |  | active; positive |  | active; positive | active; positive |  | active; positive |  | active; positive | active; positive |  | inactive; negative | inactive; negative | inactive; negative |  |  | 
